Like-named read-outs stand apart in the source and are kept apart here.
Columns and labels:
[1] = molecular target: T1, β-secretase(BACE) (Homo sapiens, UniProt P56817); assay: BACE Assay-2 (FS1 substrate, IC50 and Ki); type: biochemical; settings: procedure of Example 159, FS1 substrate; read-out: Ki μM (159)
T1 construct: purchased Panvera
Method: The FS1-substrate stock solution was prepared in DMSO as a 10 mg/mL solution. The FS1-substrate working solution was prepared by diluting the 10 mg/mL stock solution with substrate assay buffer to a final concentration of 300 μg/mL. The β-secretase (BACE) working solution was prepared by diluting a 0.83 mg/mL BACE stock solution with enzyme assay buffer to a final concentration of 4 μg/mL.
Test compounds were dissolved in DMSO at 10 mM.
The procedure for this assay was as follows: 15 μL of BACE working solution was pipetted into each well of a 96-well plate. To each well was then pipetted 2 μL of test compound at the selected concentration. Test compound and BACE were then mixed with a pipettor and incubated for 20 min at room temperature. To each well was then added 10 μL of the FS1 substrate working solution.
The procedure for the positive control was as follows: 15 μL of BACE working solution was pipetted into each well to be used as a positive control. To each well was then pipetted 2 μL of vehicle. Vehicle and BACE were then mixed with a pipettor and incubated for 20 min at room temperature. To each well was then added 10 μL of the FS1 substrate working solution.
For test compounds, measured at multiple concentrations, the measured T0 and T60 values were used to calculate an IC50 value using Graphpad Software (or PIR). For test compounds, Ki inhibition was determined as follows: For each compound concentration and positive control, rate of cleavage of substrate (Vi, where i=compound concentration in μM) was determined as Δ Fluorescence/Δ time (min). Cleavage rates (Vi) were plotted as a function of inhibitor concentration in μM [I]. The Ki was then determined by fitting the following equation to the graph of [I] vs Vi Y=aVmax/(50+24*(1+X/Ki)),

[2] = molecular target: T1, β-secretase(BACE); assay: BACE FS1% Inhibition Assay; type: biochemical; settings: FS1 substrate
Outline: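 Human BACE (4 μg/mL working solution) preincubated 20 min at room temperature with compound, then FS1 substrate (300 μg/mL working solution) added and incubated 1 h at room temperature. Percent inhibition calculated at each compound concentration against blank and vehicle controls.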

[3] = 0.3 μM test compound, read-out: % Inhibition (FS)
[4] = 1 μM test compound, read-out: % Inhibition (FS)
[5] = 3 μM test compound, read-out: % Inhibition (FS)

T1 sequence (P56817 46-501): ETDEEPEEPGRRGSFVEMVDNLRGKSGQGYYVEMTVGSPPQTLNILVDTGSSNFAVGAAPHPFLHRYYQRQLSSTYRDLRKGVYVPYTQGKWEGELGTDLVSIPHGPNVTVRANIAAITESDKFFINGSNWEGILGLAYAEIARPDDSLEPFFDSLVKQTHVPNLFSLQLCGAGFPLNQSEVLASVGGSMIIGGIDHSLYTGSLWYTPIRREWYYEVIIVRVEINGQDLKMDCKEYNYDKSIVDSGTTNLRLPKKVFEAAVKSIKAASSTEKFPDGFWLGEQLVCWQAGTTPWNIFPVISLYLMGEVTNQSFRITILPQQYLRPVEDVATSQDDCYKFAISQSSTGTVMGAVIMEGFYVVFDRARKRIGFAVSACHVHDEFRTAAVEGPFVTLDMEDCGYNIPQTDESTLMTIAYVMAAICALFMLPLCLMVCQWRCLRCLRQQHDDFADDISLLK

% Inhibition (FS) ([2]; 0.3 μM test compound) [%]	% Inhibition (FS) ([2]; 1 μM test compound) [%]	% Inhibition (FS) ([2]; 3 μM test compound) [%]	Compound	also measured
–	–	–	COc1ccccc1-c1ccc2c(c1)CN(C(CCC(=O)N(C)C1CCCCC1)C1CCCCC1)C(N)=N2 (single isomer, unassigned) [Compound 530]	Ki [1]: 0.13 µM; inhibition at 0.3 µM ([2]; 0.3 μM test compound, read-out: % Inhibition (FS) 0.3 μM): < 30%; inhibition at 1 µM ([2]; 1 μM test compound, read-out: % Inhibition (FS) 1 μM): 80%; inhibition at 3 µM ([2]; 3 μM test compound, read-out: % Inhibition (FS) 3 μM): 118%
<30	68	126	CN(C(=O)CC[C@@H](C1CCCCC1)N1Cc2cc(Oc3ccccc3)ccc2N=C1N)C1CCC2(CC1)OCCO2 [Compound 710]	–
<30	43	113	CN(C(=O)CC[C@@H](C1CCCCC1)N1Cc2cc(Oc3ccccc3)ccc2N=C1N)C1CCC(=O)CC1 [Compound 711]	–
<30	<30	72	COc1ccccc1-c1ccc2c(c1)CN([C@@H](CCC(=O)N(C)Cc1csc(-c3ccccc3)n1)C1CCCCC1)C(N)=N2 [Compound 716]	–
33	39	72	COc1ccccc1-c1ccc2c(c1)CN([C@@H](CCC(=O)N(C)Cc1cnn(-c3ccccc3)c1)C1CCCCC1)C(N)=N2 [Compound 717]	–
<30	30	114	COc1ccccc1-c1ccc2c(c1)CN([C@@H](CCC(=O)N(C)Cc1cc(C)no1)C1CCCCC1)C(N)=N2 [Compound 718]	–
31	<30	81	COc1ccccc1-c1ccc2c(c1)CN([C@@H](CCC(=O)N(C)Cc1cc(-c3ccccc3)on1)C1CCCCC1)C(N)=N2 [Compound 719]	–
35	35	78	CN(Cc1csc(-c2ccccc2)n1)C(=O)CC[C@@H](C1CCCCC1)N1Cc2cc(-c3ccccc3F)ccc2N=C1N [Compound 722]	–
38	<30	65	CN(Cc1cc(-c2ccccc2)on1)C(=O)CC[C@@H](C1CCCCC1)N1Cc2cc(-c3ccccc3F)ccc2N=C1N [Compound 724]	–
43	58	97	CC(C)N1CCC(N(C)C(=O)CC[C@@H](C2CCCCC2)N2Cc3cc(Oc4ccccc4)ccc3N=C2N)CC1 [Compound 728]	–
–	–	–	CCOC(=O)C1CCC(N(C)C(=O)CCC(C2CCCCC2)N2Cc3cc(Oc4ccccc4)ccc3N=C2N)CC1 (stereo not shown) [Compound 737]	% Inhibition (FS) ([2]; 0.3 μM test compound, 0.3 µM): 22%; % Inhibition (FS) ([2]; 1 μM test compound, 1 µM): 34%; % Inhibition (FS) ([2]; 3 μM test compound, 3 µM): 97%
14	28	61	CN(C(=O)CCC(C)(C)N1Cc2cc(Oc3ccccc3)ccc2N=C1N)C1CCCCC1 [Compound 738]	–
−48	−38	−25	CN(C(=O)CCC(C1CCCCC1)N1Cc2cc(Oc3ccccc3)ccc2N=C1N)C1(C(=O)O)CCCCC1 (stereo not shown) [Compound 741]	–
107	125	130	CN(C(=O)CCC(C1CCOCC1)N1Cc2cc(Oc3ccccc3)ccc2N=C1N)C1CCC(C(=O)O)CC1 (stereo not shown) [Compound 743]	–
41	74	104	COC(=O)[C@H]1CC[C@H](NC(=O)CC[C@@H](C2CCOCC2)N2Cc3cc(Oc4ccccc4)ccc3N=C2N)CC1 [Compound 747]	–
45	81	109	CN(CCCCC(=O)O)C(=O)CC[C@@H](C1CCCCC1)N1Cc2cc(Oc3ccccc3)ccc2N=C1N [Compound 752]	–
8	35	89	CN(C(=O)CC[C@@H](C1CCCCC1)N1Cc2ccc(Oc3ccccc3)cc2N=C1N)C1CCCCC1 [Compound 754]	–
<30	44	89	CN(C(=O)CCC(C1CCCCC1)N1Cc2cc(Oc3ccccc3)ccc2N=C1N)C1CCC(C(=O)OCc2ccccc2)CC1 (stereo not shown) [Compound 760]	–
–	–	–	CCOC(=O)C1CCC(N(C)C(=O)CCC(C2CCCCC2)N2Cc3cc(Oc4ccccc4)ccc3N=C2N)CC1 (stereo not shown) [Compound 763]	% Inhibition (FS) ([2]; 0.3 μM test compound, 0.3 µM): <30%; % Inhibition (FS) ([2]; 1 μM test compound, 1 µM): 84%; % Inhibition (FS) ([2]; 3 μM test compound, 3 µM): 109%
<30	56	97	CNC(=O)C1CCC(N(C)C(=O)CCC(C2CCCCC2)N2Cc3cc(Oc4ccccc4)ccc3N=C2N)CC1 (stereo not shown) [Compound 765]	–

% Inhibition (FS) ([2]; 0.3 μM test compound) [%]	% Inhibition (FS) ([2]; 1 μM test compound) [%]	% Inhibition (FS) ([2]; 3 μM test compound) [%]	Compound	also measured
<30	<30	<30	CN(C(=O)CCC(C1CCCCC1)N1Cc2cc(Oc3ccccc3)ccc2N=C1N)c1ccc(C(=O)O)cc1 (stereo not shown) [Compound 766]	–
<30	71	106	CN(CC(=O)O)C(=O)CCC(C1CCCCC1)N1Cc2cc(Oc3ccccc3)ccc2N=C1N (stereo not shown) [Compound 767]	–
<30	61	107	CN(C(=O)CCC(C1CCCCC1)N1Cc2cc(Oc3ccccc3)ccc2N=C1N)C1CCC(C#N)CC1 (stereo not shown) [Compound 769]	–
<30	<30	<30	CN(C(=O)CCC(C1CCCCC1)N1Cc2cc(Oc3ccccc3)ccc2N=C1N)C1CCC(c2nn[nH]n2)CC1 (stereo not shown) [Compound 770]	–
<30	62	111	COC(=O)Cc1cccc(CN(C)C(=O)CCC(C2CCCCC2)N2Cc3cc(Oc4ccccc4)ccc3N=C2N)c1 (stereo not shown) [Compound 775]	–
<30	77	113	CN(Cc1cccc(CC(=O)O)c1)C(=O)CCC(C1CCCCC1)N1Cc2cc(Oc3ccccc3)ccc2N=C1N (stereo not shown) [Compound 778]	–
69	97	109	COC(=O)C(COCc1ccccc1)N(C)C(=O)CCC(C1CCCCC1)N1Cc2cc(Oc3ccccc3)ccc2N=C1N (stereo not shown) [Compound 780]	–
106	109	121	CN(C(=O)CCC(C1CCCCC1)N1Cc2cc(Oc3ccccc3)ccc2N=C1N)C(COCc1ccccc1)C(=O)O (stereo not shown) [Compound 781]	–
–	–	–	CN(C(=O)c1cccc(CN2Cc3ccccc3N=C2N)c1)C1CCCCC1 [Compound 801]	inhibition at 0.3 µM [2, 3]: < 30%; inhibition at 1 µM [2, 4]: < 30%; inhibition at 3 µM [2, 5]: < 30%
–	–	–	CN(C(=O)c1cccc(CN2Cc3cc(Br)ccc3N=C2N)c1)C1CCCCC1 [Compound 802]	inhibition at 0.3 µM [2, 3]: < 30%; inhibition at 1 µM [2, 4]: < 30%; inhibition at 3 µM [2, 5]: 50%
–	–	–	CN(C(=O)CC(c1ccccc1)N1Cc2cc(F)ccc2N=C1N)C1CCCCC1 (stereo not shown) [Compound 803]	inhibition at 0.3 µM [2, 3]: < 30%; inhibition at 1 µM [2, 4]: < 30%; inhibition at 3 µM [2, 5]: < 30%
–	–	–	NC1=Nc2ccc(Br)cc2CN1CCC(=O)NC12CC3CC(CC(C3)C1)C2 [Compound 804]	inhibition at 0.3 µM [2, 3]: < 30%; inhibition at 1 µM [2, 4]: < 30%; inhibition at 3 µM [2, 5]: < 30%
–	–	–	NC1=Nc2ccc(Oc3ccccc3)cc2CN1Cc1cccc(C(=O)O)c1 [Compound 805]	inhibition at 0.3 µM [2, 3]: < 30%; inhibition at 1 µM [2, 4]: < 30%; inhibition at 3 µM [2, 5]: < 30%
–	–	–	NC1=Nc2ccc(Br)cc2CN1CCNC(=O)C1CCCCC1 [Compound 806]	inhibition at 0.3 µM [2, 3]: < 30%; inhibition at 1 µM [2, 4]: < 30%; inhibition at 3 µM [2, 5]: < 30%
–	–	–	N#Cc1cccc(C(=O)NCCN2Cc3cc(Br)ccc3N=C2N)c1 [Compound 807]	inhibition at 0.3 µM [2, 3]: < 30%; inhibition at 1 µM [2, 4]: < 30%; inhibition at 3 µM [2, 5]: < 30%
–	–	–	CCCC(=O)NCCN1Cc2cc(Br)ccc2N=C1N [Compound 808]	inhibition at 0.3 µM [2, 3]: < 30%; inhibition at 1 µM [2, 4]: < 30%; inhibition at 3 µM [2, 5]: < 30%
–	–	–	CC(C)(C)C(=O)NCCN1Cc2cc(Br)ccc2N=C1N [Compound 809]	inhibition at 0.3 µM [2, 3]: < 30%; inhibition at 1 µM [2, 4]: < 30%; inhibition at 3 µM [2, 5]: 32%
–	–	–	COc1cccc(CCNC(=O)CCC(C2CCCCC2)N2Cc3cc(F)ccc3N=C2N)c1 (stereo not shown) [Compound 810]	inhibition at 0.3 µM [2, 3]: < 30%; inhibition at 1 µM [2, 4]: < 30%; inhibition at 3 µM [2, 5]: < 30%
–	–	–	NC1=Nc2ccc(Oc3ccccc3)cc2CN1Cc1cccc(N)c1 [Compound 811]	inhibition at 0.3 µM [2, 3]: < 30%; inhibition at 1 µM [2, 4]: < 30%; inhibition at 3 µM [2, 5]: < 30%

— patent US8383637B2, “2-amino-quinazoline derivatives useful as inhibitors of β-secretase (BACE)” (Jansssen Pharmaceutica N.V., priority 2004, dated 2013)
